Source: patent US20250179073A1, “TRICYCLIC HETEROCYCLE COMPOUNDS AS IAP ANTAGONISTS” (Ascentage Pharma (Suzhou) Co., Ltd., priority 2022, published 2025)

Legend:
MDA-MB-231 cells = assay: Cell proliferation assay (CellTiter-Glo), MDA-MB-231; format: cell-based; settings: Homo sapiens, MDA-MB-231, 72 h, 72 h treatment, Celltiter-Glo luminescence
Outline: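 MDA-MB-231 (RPMI-1640/10% FBS) and EVSA-T (MEM/10% FBS) cells, 10000 cells/well, exposed 72 h to compound at […]. Viability read by CellTiter-Glo luminescence after 15 min at room temperature. IC50 from control-normalised curve fitting.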

EVSA-T cells = assay: Cell proliferation assay (CellTiter-Glo), EVSA-T; format: cell-based; settings: Homo sapiens, EVSA-T, 72 h, 72 h treatment, Celltiter-Glo luminescence
Description: Example 238: Cell Proliferation Assay
MDA-MB-231 and EVSA-T cells (10000 cells/well) were plated onto 96-well plates (Corning, Cat #3917) in 95 μL of medium (RPMI-1640 containing 10% FBS and MEM containing 10% FBS, respectively). Compounds with various concentrations ([…]) were added to the wells. After treatment for 72 h, 30 μL of Celltiter-Glo reagent (Promega, Cat #G7573) was added and incubated at room temperature for 15 min, then the luminescent signal was determined using a microplate reader (Biotek, SynergyH1). The inhibitor dose-response curves were analyzed using normalized IC50 regression curve fitting with control based normalization.

Compound `C[C@@H]1CN(CC(=O)N2CC(C)(C)c3c2cc(Cc2ccc(F)cc2)c2nc(C(F)(F)F)cn32)[C@@H](CN2CCN(CC(F)(F)F)C[C@H]2C)CN1` [Compound 179, 1-(4-(4-fluorobenzyl)-8,8-dimethyl-2-(trifluoromethyl)-7,8-dihydro-6H-imidazo[1,2-a]pyrrolo[2,3-e]pyridin-6-yl)-2-((2R,5R)-5-methyl-2-(((R)-2-methyl-4-(2,2,2-trifluoroethyl)piperazin-1-yl)methyl)piperazin-1-yl)ethan-1-one] has an IC50 (MDA-MB-231 cells) of 180 nM and an IC50 (EVSA-T cells) of 15 nM.
`C[C@@H]1CN(CC(=O)N2CC(C)(C)c3c2cc(Cc2ccc(F)cc2)c2nn(Cc4cnccn4)c(=O)n32)[C@@H](CN2CCOC[C@H]2C)CN1` [Compound 193, 4-(4-fluorobenzyl)-8,8-dimethyl-6-(2-((2R,5R)-5-methyl-2-(((R)-3-methylmorpholino)methyl)piperazin-1-yl)acetyl)-2-(pyrazin-2-ylmethyl)-2,6,7,8-tetrahydro-1H-pyrrolo[2,3-e][1,2,4]triazolo[4,3-a]pyridin-1-one] gave an IC50 (MDA-MB-231 cells) of 50 nM and an IC50 (EVSA-T cells) of 6 nM.
`C[C@@H]1CN(CC(=O)N2CC(C)(C)c3c2cc(Cc2ccc(F)cc2)c2ncnn32)[C@@H](CN2CC3CCC2CO3)CN1` (stereo partly drawn) [Compound 214, 2-((2R,5R)-2-((2-oxa-5-azabicyclo[2.2.2]octan-5-yl)methyl)-5-methylpiperazin-1-yl)-1-(4-(4-fluorobenzyl)-8,8-dimethyl-7,8-dihydro-6H-pyrrolo[2,3-e][1,2,4]triazolo[1,5-a]pyridin-6-yl)ethan-1-one] gave an IC50 (MDA-MB-231 cells) of 49 nM and an IC50 (EVSA-T cells) of 8 nM.
Work on `C[C@@H]1CN(CC(=O)N2CC(C)(C)c3c2cc(Cc2ccc(F)cc2)c2ncnn32)[C@@H](CN2Cc3cc(F)ccc3C2=O)CN1` [Compound 100, 5-fluoro-2-(((2R,5R)-1-(2-(4-(4-fluorobenzyl)-8,8-dimethyl-7,8-dihydro-6H-pyrrolo[2,3-e][1,2,4]triazolo[1,5-a]pyridin-6-yl)-2-oxoethyl)-5-methylpiperazin-2-yl)methyl)isoindolin-1-one] yielded an IC50 (MDA-MB-231 cells) of 21 nM and an IC50 (EVSA-T cells) of 4 nM.
`C[C@@H]1CN(CC(=O)N2CC(C)(C)c3c2cc(Cc2ccc(F)cc2)c2nnc(C4CC4)n32)[C@@H](CN2CCOC[C@H]2C)CN1` [Example 12, 1-(1-cyclopropyl-4-(4-fluorobenzyl)-8,8-dimethyl-7,8-dihydro-6H-pyrrolo[2,3-e][1,2,4]triazolo[4,3-a]pyridin-6-yl)-2-((2R,5R)-5-methyl-2-(((R)-3-methylmorpholino)methyl)piperazin-1-yl)ethan-1-one] showed an IC50 (MDA-MB-231 cells) of 190 nM and an IC50 (EVSA-T cells) of 12 nM.
In the case of `C[C@@H]1CN(CC(=O)N2CC(C)(C)c3c2cc(Cc2ccc(F)cc2)c2nn(C4CCOCC4)c(=O)n32)[C@@H](CN2CCOC[C@H]2C)CN1` [Compound 190, 4-(4-fluorobenzyl)-8,8-dimethyl-6-(2-((2R,5R)-5-methyl-2-(((R)-3-methylmorpholino)methyl)piperazin-1-yl)acetyl)-2-(tetrahydro-2H-pyran-4-yl)-2,6,7,8-tetrahydro-1H-pyrrolo[2,3-e][1,2,4]triazolo[4,3-a]pyridin-1-one], the IC50 (MDA-MB-231 cells) is reported as 14 nM and the IC50 (EVSA-T cells) is reported as 3 nM.
Compound `C[C@@H]1CN(CC(=O)N2CC(C)(C)c3c2cc(Cc2ccc(F)cc2)c2nn(-c4ncccn4)c(=O)n32)[C@@H](CN2CCOC[C@H]2C)CN1` [Compound 230, 4-(4-fluorobenzyl)-8,8-dimethyl-6-(2-((2R,5R)-5-methyl-2-(((R)-3-methylmorpholino)methyl)piperazin-1-yl)acetyl)-2-(pyrimidin-2-yl)-2,6,7,8-tetrahydro-1H-pyrrolo[2,3-e][1,2,4]triazolo[4,3-a]pyridin-1-one] has an IC50 (MDA-MB-231 cells) of 38 nM and an IC50 (EVSA-T cells) of 8 nM.
Work on `C[C@@H]1CN(CC(=O)N2CC(C)(C)c3c2cc(Sc2ccc(F)cc2)c2ncnn32)[C@@H](CN2CCOC[C@H]2C)CN1` [Compound 49, 1-(4-((4-fluorophenyl)thio)-8,8-dimethyl-7,8-dihydro-6H-pyrrolo[2,3-e][1,2,4]triazolo[1,5-a]pyridin-6-yl)-2-((2R,5R)-5-methyl-2-(((R)-3-methylmorpholino)methyl)piperazin-1-yl)ethan-1-one] yielded an IC50 (MDA-MB-231 cells) of 30 nM and an IC50 (EVSA-T cells) of 5 nM.
`C[C@@H]1CN(CC(=O)N2CC3(CC3)c3c2cc(Cc2ccc(F)cc2)c2ncnn32)[C@@H](CN2CCOC[C@H]2C)CN1` [Compound 56, 1-(4′-(4-fluorobenzyl)spiro[cyclopropane-1,8′-pyrrolo[2,3-e][1,2,4]triazolo [1,5-a]pyridin]-6′(7′H)-yl)-2-((2R,5R)-5-methyl-2-(((R)-3-methylmorpholino)methyl)piperazin-1-yl)ethan-1-one] showed an IC50 (MDA-MB-231 cells) of 35 nM and an IC50 (EVSA-T cells) of 9 nM.
With `C[C@@H]1CN(CC(=O)N2CC(C)(C)c3c2cc(Cc2ccc(F)cc2)c2ncnn32)[C@@H](CN2CCN(CC#N)C[C@H]2C)CN1` [Compound 182, 2-((R)-4-(((2R,5R)-1-(2-(4-(4-fluorobenzyl)-8,8-dimethyl-7,8-dihydro-6H-pyrrolo[2,3-e][1,2,4]triazolo[1,5-a]pyridin-6-yl)-2-oxoethyl)-5-methylpiperazin-2-yl)methyl)-3-methylpiperazin-1-yl)acetonitrile] the IC50 (MDA-MB-231 cells) was 17 nM and the IC50 (EVSA-T cells) was 2 nM.
Work on `C[C@@H]1CN(CC(=O)N2CC(C)(C)c3c2cc([C@@H](O)c2ccc(F)cc2)c2ncnn32)[C@@H](CN2CCOC[C@H]2C)CN1` [Compound 133, 1-(4-((S)-(4-fluorophenyl)(hydroxy)methyl)-8,8-dimethyl-7,8-dihydro-6H-pyrrolo[2,3-e][1,2,4]triazolo[1,5-a]pyridin-6-yl)-2-((2R,5R)-5-methyl-2-(((R)-3-methylmorpholino)methyl)piperazin-1-yl)ethan-1-one] yielded an IC50 (MDA-MB-231 cells) of 210 nM and an IC50 (EVSA-T cells) of 56 nM.
For `C[C@@H]1CN(CC(=O)N2CC(C)(C)c3c2cc(Cc2ccc(F)cc2)c2nc(N4CCOC4=O)nn32)[C@@H](CN2CCOC[C@H]2C)CN1` [Compound 204, 3-(4-(4-fluorobenzyl)-8,8-dimethyl-6-(2-((2R,5R)-5-methyl-2-(((R)-3-methylmorpholino)methyl)piperazin-1-yl)acetyl)-7,8-dihydro-6H-pyrrolo[2,3-e][1,2,4]triazolo[1,5-a]pyridin-2-yl)oxazolidin-2-one], the IC50 (MDA-MB-231 cells) was 44 nM and the IC50 (EVSA-T cells) was 14 nM.
Compound `C[C@@H]1CN(CC(=O)N2CC(C)(C)c3c2cc(Cc2ccc(F)cc2)c2nc(C(F)(F)F)cn32)[C@@H](CN2[C@H](C)COC[C@H]2C)CN1` [Compound 161, 2-((2R,5R)-2-(((3R,5R)-3,5-dimethylmorpholino)methyl)-5-methylpiperazin-1-yl)-1-(4-(4-fluorobenzyl)-8,8-dimethyl-2-(trifluoromethyl)-7,8-dihydro-6H-imidazo[1,2-a]pyrrolo[2,3-e]pyridin-6-yl)ethan-1-one] has an IC50 (MDA-MB-231 cells) of 120 nM and an IC50 (EVSA-T cells) of 30 nM.
In the case of `COCC(COC)n1nc2c(Cc3ccc(F)cc3)cc3c(n2c1=O)C(C)(C)CN3C(=O)CN1C[C@@H](C)NC[C@@H]1CN1CCOC[C@H]1C` [Compound 261, 2-(1,3-dimethoxypropan-2-yl)-4-(4-fluorobenzyl)-8,8-dimethyl-6-(2-((2R,5R)-5-methyl-2-(((R)-3-methylmorpholino)methyl)piperazin-1-yl)acetyl)-2,6,7,8-tetrahydro-1H-pyrrolo[2,3-e][1,2,4]triazolo[4,3-a]pyridin-1-one], the IC50 (MDA-MB-231 cells) is reported as 17 nM and the IC50 (EVSA-T cells) is reported as 3.2 nM.
In the case of `C[C@@H]1CN(CC(=O)N2CC(C)(C)c3c2cc(Cc2ccc(F)cc2)c2ncnn32)[C@@H](CN2Cc3ccncc3C2=O)CN1` [Compound 97, 2-(((2R,5R)-1-(2-(4-(4-fluorobenzyl)-8,8-dimethyl-7,8-dihydro-6H-pyrrolo[2,3-e][1,2,4]triazolo[1,5-a]pyridin-6-yl)-2-oxoethyl)-5-methylpiperazin-2-yl)methyl)-1,2-dihydro-3H-pyrrolo[3,4-c]pyridin-3-one], the IC50 (MDA-MB-231 cells) is reported as 47 nM and the IC50 (EVSA-T cells) is reported as 3 nM.
In the case of `C[C@@H]1CN(CC(=O)N2CC(C)(C)c3c2cc(Cc2ccc(F)cc2)c2nc(-c4ccn[nH]4)nn32)[C@@H](CN2CCOC[C@H]2C)CN1` [Compound 247, 1-(4-(4-fluorobenzyl)-8,8-dimethyl-2-(1H-pyrazol-5-yl)-7,8-dihydro-6H-pyrrolo[2,3-e][1,2,4]triazolo[1,5-a]pyridin-6-yl)-2-((2R,5R)-5-methy 1-2-(((R)-3-methylmorpholino)methyl)piperazin-1-yl)ethan-1-one], the IC50 (MDA-MB-231 cells) is reported as 4 nM and the IC50 (EVSA-T cells) is reported as 6.2 nM.
`Cc1nnc2c(Cc3ccc(F)cc3)cc3c(n12)C(C)(C)CN3C(=O)CN1C[C@@H](C)NC[C@@H]1CN1CCOC[C@H]1C` [Example 10, 1-(4-(4-fluorobenzyl)-1,8,8-trimethyl-7,8-dihydro-6H-pyrrolo[2,3-e][1,2,4]triazolo[4,3-a]pyridin-6-yl)-2-((2R,5R)-5-methyl-2-(((R)-3-methylmorpholino)methyl)piperazin-1-yl)ethan-1-one] showed an IC50 (MDA-MB-231 cells) of 350 nM and an IC50 (EVSA-T cells) of 27 nM.
Compound `C[C@@H]1CN(CC(=O)N2CC3(CCOCC3)c3c2cc(Cc2ccc(F)cc2)c2ncnn32)[C@@H](CN2CCOC[C@H]2C)CN1` [Compound 180, 1-(4′-(4-fluorobenzyl)-2,3,5,6-tetrahydrospiro[pyran-4,8′-pyrrolo[2,3-e][1,2,4]triazolo[1,5-a]pyridin]-6′(7′H)-yl)-2-((2R,5R)-5-methyl-2-(((R)-3-methylmorpholino)methyl)piperazin-1-yl)ethan-1-one] has an IC50 (MDA-MB-231 cells) of 615 nM and an IC50 (EVSA-T cells) of 56 nM.
